Assay results published in patent publication US20090075989A1, “NON-STEROIDAL PROGESTERONE RECEPTOR MODULATORS” (priority 2006, published 2009).

Target: T1, progesterone receptor PR (PR-B) (Homo sapiens, UniProt P06401)
T1 sequence (P06401 1-933): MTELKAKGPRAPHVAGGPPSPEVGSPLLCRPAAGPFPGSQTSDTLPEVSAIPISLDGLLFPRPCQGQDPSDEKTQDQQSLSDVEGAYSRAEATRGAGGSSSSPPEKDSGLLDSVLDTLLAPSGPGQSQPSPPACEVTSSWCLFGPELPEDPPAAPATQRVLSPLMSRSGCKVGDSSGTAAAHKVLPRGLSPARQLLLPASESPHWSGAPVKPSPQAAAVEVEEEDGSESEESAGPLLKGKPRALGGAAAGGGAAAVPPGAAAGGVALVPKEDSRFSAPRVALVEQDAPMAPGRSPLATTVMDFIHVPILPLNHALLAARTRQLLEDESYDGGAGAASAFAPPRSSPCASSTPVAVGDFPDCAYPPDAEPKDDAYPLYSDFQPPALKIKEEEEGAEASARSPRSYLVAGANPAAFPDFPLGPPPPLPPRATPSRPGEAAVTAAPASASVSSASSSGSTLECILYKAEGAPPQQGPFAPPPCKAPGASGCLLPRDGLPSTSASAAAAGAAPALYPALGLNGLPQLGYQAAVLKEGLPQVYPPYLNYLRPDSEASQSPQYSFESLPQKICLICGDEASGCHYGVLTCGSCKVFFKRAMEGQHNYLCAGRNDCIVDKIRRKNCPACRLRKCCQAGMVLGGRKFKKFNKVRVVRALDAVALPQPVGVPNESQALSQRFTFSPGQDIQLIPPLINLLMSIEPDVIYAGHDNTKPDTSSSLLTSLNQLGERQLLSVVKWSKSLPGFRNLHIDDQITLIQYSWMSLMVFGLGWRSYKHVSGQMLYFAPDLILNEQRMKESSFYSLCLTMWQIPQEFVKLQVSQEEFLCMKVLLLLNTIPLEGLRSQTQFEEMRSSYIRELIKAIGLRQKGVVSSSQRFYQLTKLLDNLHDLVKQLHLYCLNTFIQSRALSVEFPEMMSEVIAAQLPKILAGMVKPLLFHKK
Experiment: Transactivation assay, antagonism on the progesterone receptor PR
Format: cell-based
Settings: transactivation test for antagonistic activity on (PR-B)
Procedure: Antagonism on the progesterone receptor PR
The transactivation assay is carried out as described in WO 02/054064.

Structure (SMILES)	IC50 [nM]
Cc1noc(=O)c2ccc(NC(=O)C(O)(C#Cc3ccccc3)c3ccccc3)cc12 (racemic) [Example 1b, rac-6-[2,4-diphenyl-2-hydroxybut-3-ynoylamino]-4-methyl-2,3-benzoxazin-1-one]	30
Cc1noc(=O)c2ccc(NC(=O)C(O)(Cc3ccccc3)c3ccccc3)cc12 (racemic) [Example 5, rac-6-[2-hydroxy-2,3-diphenylpropionylamino]-4-methyl-2,3-benzoxazin-1-one]	5
Cc1noc(=O)c2ccc(NC(=O)C(O)(Cc3ccccc3)c3ccc([N+](=O)[O-])cc3)cc12 (racemic) [Example 10, rac-6-[2-hydroxy-2-(4-nitrophenyl)-3-phenylpropionylamino]-4-methyl-2,3-benzoxazin-1-one]	5
N#Cc1ccc(NC(=O)C(O)(Cc2ccccc2)c2ccccc2)cc1Cl (racemic) [Example 29b, rac-N-(3-chloro-4-cyanophenyl)-2-hydroxy-2,3-diphenylpropionamide]	40
N#Cc1ccc(NC(=O)C(O)(Cc2ccccc2)c2ccccc2)cc1C(F)(F)F (racemic) [Example 34b, rac-N-(4-cyano-3-trifluoromethylphenyl)-2-hydroxy-2,3-diphenylpropionamide]	71
Cc1noc(=O)c2ccc(NC(=O)C(O)(Cc3ccccc3)c3ccc(C(C)(C)C)cc3)cc12 (racemic) [Example 45c, rac-6-[2-hydroxy-2-(4-(1,1-dimethylethyl)phenyl)-3-phenylpropionylamino]-4-methyl-2,3-benzoxazin-1-one]	3.2
Cc1noc(=O)c2ccc(NC(=O)C(O)(Cc3ccccc3)c3ccc(N(C)C)cc3)cc12 (racemic) [Example 48d, rac-6-[2-hydroxy-2-(4-dimethylaminophenyl)-3-phenylpropionylamino]-4-methyl-2,3-benzoxazin-1-one]	50
CC(=O)c1ccc(C(O)(Cc2ccccc2)C(=O)Nc2ccc3c(=O)onc(C)c3c2)cc1 (racemic) [Example 55f, rac-6-[2-hydroxy-2-(4-acetylphenyl)-3-phenylpropionylamino]-4-methyl-2,3-benzoxazin-1-one]	32
Cc1noc(=O)c2ccc(NC(=O)C(O)(Cc3ccccc3)c3cccs3)cc12 (racemic) [Example 64b, rac-6-[2-hydroxy-2-(thiophen-2-yl)-3-phenylpropionylamino]-4-methyl-2,3-benzoxazin-1-one]	8.9
Cc1noc(=O)c2ccc(NC(=O)C(O)(Cc3ccccc3)c3ccc(-c4cccs4)cc3)cc12 (racemic) [Example 75, rac-6-[2-hydroxy-2-(4-thiophen-2-ylphenyl)-3-phenylpropionylamino]-4-methyl-2,3-benzoxazin-1-one]	39.8
COc1ccc(C#CC(O)(C(=O)Nc2ccc(C#N)c(Cl)c2)c2ccccc2)cc1 (racemic) [Example 80]	40
